According to patent US20040097411A1, “Method of treating left ventricular dysfunction” (Allegheny-Singer Research Institute, priority 2002, published 2004):
Read-outs that look alike come from different tables or passages of the source.

How the values were obtained:
[1] = tested on: conscious, chronically instrumented dogs; assay: Acute graded infusion, hemodynamic effects in conscious chronically instrumented dogs (normal and advanced dilated cardiomyopathy); assay type: in vivo, dog
Description: FIGS. 2a-2d show the dose response to rGLP-1 in normal conscious dogs and conscious dogs with advanced DCM compared to the response to the sympathomimetic, dobutamine.
FIG. 1 illustrates characteristic instrumentation of conscious, chronically instrumented dogs studied in the laboratory. Under sterile surgical technique, the animals are instrumented as indicated and allowed to recover fully from their surgery. At the time, they are taught to lie quietly on the experimental table before study. To determine if acute GLP-1 (7-36 amide) infusion is associated with hemodynamic effects in conscious chronically instrumented dogs, graded infusions for ten minutes at doses of 1.25, 2.5, 5, 10 and 20 pmol/kg/min in six normal dogs and in six dogs with advanced dilated cardiomyopathy were studied. The response of the graded infusion to the classic iontopic agent, Dobutamine, (2.5, 5, 7.5, 10 and 15μ/kg/min.) was compared. […] Nikolaidis, L A, Hentosz, T, Doverspike, A, et al., “Catecholamine stimulation is associated with impaired myocardial O2 utilization in heart failure,” Cardiovas. Res., 2002;53:392-404, incorporated by reference herein.

normal dogs = assay: 48 hour continuous intravenous infusion in normal dogs, hemodynamic effect; assay type: in vivo, dog; settings: 1.5 pmol/kg/min i.v. 48 hour
Experimental: (§1) A 48 hour continuous intravenous infusion of GLP-1 (7-36 amide), (1.5 pmol/kg/min) in five normal dogs to determine the hemodynamic effect of chronic infusion in the absence of dilated cardiomyopathy was conducted. […] FIGS. 3-5 illustrates the effects of GLP-1 (7-36 amide) infusion (1.5 pmol/kg/min) intravenously for 48 hours in 20 conscious, chronically instrumented animals with advanced heart failure. These effects have been compared to similarly instrumented animals with advanced heart failure that received a control saline infusion of equal volume ([…]) illustrate the hemodynamic effects of chronic GLP-1 infusion in advanced DCM. GLP-1 (7-36 amide) infusion was associated with a restoration of left ventricular pressure, improvement in contractility, improvement in cardiac output, and reduction in heart rate and LVEDP. […] GLP-1 was associated with restoration of endothelial dependent vaso dilatation response to acetylcholine (FIG. 7). […] GLP-1 had […] increased plasma insulin levels in the setting of euglycemia.

[2] = tested on: conscious dogs with advanced DCM; assay: 48 hour intravenous infusion in conscious dogs with advanced heart failure (DCM): hemodynamics, sympathetic activity, coronary vasodilation; assay type: in vivo, dog
Description: FIGS. 3a-3d show the effects of r GLP-1 on LV systolic pressure, LV end diastolic pressure, LV dP/dt, and heart rate in conscious dogs with advanced DCM compared to saline control.
FIGS. 4a-4d show the effects of rGLP-1 on cardiac output, stroke volume, LV ejection fraction, systemic vascular resistance in conscious dogs with advanced DCM compared to saline control.
FIGS. 5a and 5b show the effects of rGLP-1 on stroke work and LV external efficiency in conscious dogs with advanced DCM compared to saline control.
FIGS. 6a and 6b show the effects of rGLP-1 on transmyocardial norepinephrine uptake as a reflection of sympathetic drive to the myocardium in conscious dogs with advanced DCM compared to saline controls.
FIGS. 7a and 7b show the effects of rGLP-1 on endothelial dependent coronary vasodilation in conscious dogs. Advanced DCM was associated with impaired coronary flow responses to acetylcholine. These responses were restored following 48-hour infusion of rGLP-1. The response to the non-endothelial dependent vasodilator, nitroglycerine was unaffected.
as §1

[3] = tested on: conscious dogs with advanced DCM; assay: Myocardial substrate uptake and metabolic parameters in dogs with advanced DCM (Table 1); assay type: in vivo, dog; settings: for Glucose myocardial uptake / Lactate myocardial uptake / NE (transmyocardial norepinephrine uptake) / NEFA myocardial uptake / Insulin/Glucagon: GLP-1 group; for Insulin/Glucagon: insulin pmol/L to glucagon pg/ml
Experimental: as §1

[4] = tested on: adults presenting with severe acute myocardial infarction; assay: 72 hour continuous intravenous infusion in adults with severe acute myocardial infarction; assay type: in vivo, human
Experimental: The effects of continuous intravenous infusion of GLP-1 (1.5 pmol/kg/min) intravenously for 72 hours was studied in ten adults presenting with severe acute myocardial infarction. These were compared to eleven adults with similar large myocardial infarction (LVEF<35%) all of whom underwent percutaneous coronary intervention and subsequently were treated for 72 hours thereafter.

[5] = cited from earlier work; for plasma insulin levels: hyperglycemia (10.4 mmol/l, 187 mg/dl), GIP 2.0, GLP-1 1.5 pmol·kg−1·min−1; for insulinotropic action: normal subjects during euglycemia
rat cardiomyocytes = settings: in vitro; cited from earlier work
[6] = when GIP is administered; cited from earlier work
restrained rats = settings: rat, in vivo, sc; cited from earlier work
[7] = graded infusions for ten minutes, 1.25-20 pmol/kg/min, normal dogs and dogs with advanced dilated cardiomyopathy
[8] = 1.5 pmol/kg/min i.v. 48 hours, advanced heart failure, vs saline
[9] = 48-hour infusion, advanced DCM, FIG. 7
[10] = Baseline (before CHF and infusion)
[11] = advanced DCM, vs saline controls
[12] = hyperglycemia-only control ~280

## GLP-1 (7-36 amide)
[1]; [7]
  cardiac output: no significant, dose related effects
  heart rate: no significant, dose related effects
  left ventricular dP/dt: no significant, dose related effects
  left ventricular pressure: no significant, dose related effects
[1]; normal conscious dogs and conscious dogs with advanced DCM, FIGS. 2a-2d
  acute hemodynamic effects (dose response): no acute hemodynamic effects
Normal dogs
  hemodynamic effects of chronic infusion: no significant hemodynamic effects
[2]; [8]
  LVEDP: reduction
  cardiac output: improvement
  contractility: improvement
  heart rate: reduction
  left ventricular pressure: restoration
[2]; [9]
  endothelial dependent vasodilatation (coronary flow) response to acetylcholine: restoration
  response to the non-endothelial dependent vasodilator nitroglycerine: unaffected
[2]; 48-hour infusion, advanced DCM, FIG. 7, listed as rGLP-1
  endothelial dependent vasodilatation (coronary flow) response to acetylcholine: restored
[2]; infusion compared to saline, FIG. 6
  myocardial sympathetic activity: suppression
[3]; 24 hrs of infusion
  Glucose myocardial uptake: 8.72 ± 1.05 µmol/min
  Lactate myocardial uptake: 3.61 ± 0.62 µmol/min
  NE (transmyocardial norepinephrine uptake): 26.3 ± 3.1 pmol/min
  NEFA myocardial uptake: 4.53 ± 0.58 µmol/min
[3]; 48 hrs of infusion
  Glucose myocardial uptake: 7.00 ± 0.94 µmol/min
  Lactate myocardial uptake: 4.04 ± 0.74 µmol/min
  NE (transmyocardial norepinephrine uptake): 30.5 ± 4.9 pmol/min
  NEFA myocardial uptake: 5.16 ± 0.73 µmol/min
  Insulin/Glucagon: 3.12 ± 0.24
[3]; [10]
  Glucose myocardial uptake: 6.67 ± 1.22 µmol/min
  Lactate myocardial uptake: 4.78 ± 1.04 µmol/min
  NE (transmyocardial norepinephrine uptake): 30.9 ± 4.8 pmol/min
  NEFA myocardial uptake: 5.23 ± 0.83 µmol/min
[3]; Baseline
  Insulin/Glucagon: 1.36 ± 0.21
[3]; CHF (before infusion)
  Glucose myocardial uptake: 3.44 ± 0.81 µmol/min
  Lactate myocardial uptake: 2.64 ± 0.91 µmol/min
  NE (transmyocardial norepinephrine uptake): 18.7 ± 3.6 pmol/min
  NEFA myocardial uptake: 3.17 ± 0.61 µmol/min
  Insulin/Glucagon: 1.79 ± 0.29
[3]; advanced DCM
  plasma glucagon levels: effective in reducing
[3]; [11]
  myocardial glucose uptake: enhanced
  ratio of insulin (pmol/L) to glucagon (pg/ml): significant increase
[3]; setting of euglycemia
  plasma insulin levels: little effect
[4]; 1.5 pmol/kg/min i.v. 72 hours after PCI, vs standard care, FIG. 8
  left ventricular hemodynamics: overall improvement
[4]; patients with large myocardial infarctions, 1.5 pmol/kg/min i.v. 72 hours
  left ventricular function: improvement
[5]; hyperglycemia-only control 47
  plasma insulin levels: ~333 μU/ml
[5]; [12]
  plasma insulin levels: ~2000 pmol/L
[5]; insulinotropic action during hyperglycemia
  incretin potency comparison: more potent than GIP
[5]
  insulinotropic action: insulinotropic
Rat cardiomyocytes
  cAMP: increases
  myocyte contractility: no effect

## glucose-dependent insulinotropic polypeptide [GIP]
[5]; hyperglycemia-only control 47
  plasma insulin levels: ~150 μU/ml
[5]; [12]
  plasma insulin levels: ~900 pmol/L
[5]
  insulinotropic action: not
[6]
  increase of B-cell sensitivity to second-generation sulfonylurea: 2 fold

## CC(CCc1ccc(O)cc1)NCCc1ccc(O)c(O)c1 (stereo not drawn) [Dobutamine, reference compound]
[1]; dogs in heart failure
  hemodynamic effects of graded infusion: de-sensitized effects
[1]; normal dogs
  hemodynamic effects of graded infusion: predictable effects

## exendin-4 [excendin 4]
Restrained rats
  blood pressure: hypertension
  heart rate: tachycardia
